The source of these data is article PMC9218685, “Legume Plant Peptides as Sources of Novel Antimicrobial Molecules Against Human Pathogens” (Frontiers in Molecular Biosciences, 2022).

Test [1] has as its system E. coli, S. enteritidis, P. aeruginosa, L. monocytogenes, S. aureus, E. faecalis, K. pneumoniae and A. baumannii. Briefly: Antimicrobial activity assay, spectrum over the eight tested pathogenic bacteria. It is filed as cell-based. Conditions: 3 h treatment of ~10^7 log phase bacteria, peptides 25 to 0.8 µM; active = MBC ≤25 µM. An excerpt:
(§1) The following pathogenic bacterial strains were used: The Gram-positive Enterococcus faecalis (ATCC 29212), Staphylococcus aureus (HNCMO112011), Listeria monocytogenes (ATCC 19111) and the Gram-negative Pseudomonas aeruginosa (ATCC 27853), Escherichia coli (ATCC 8739), Salmonella enterica (ATCC 13076), Klebsiella pneumoniae (NCTC 13440), Acinetobacter baumannii (ATCC 17978) obtained from the ATCC (United States) and NCTC (National Collection of Type Cultures–England). For the antifungal experiment the Candida albicans W01 strain ([Ördögh et al., 2014]) was used. Antimicrobial activities of peptides against ∼10^7 log phase bacteria were tested in Potassium-Phosphate Buffer (PPB, pH 7.4) as described by [Jenei et al. (2020)] while anti-Candida assays were done according to [Szerencsés et al. (2021)]. The two-fold dilution series of peptides ranged from 25 μM to 0.125 μM, while that of the antibiotics ampicillin (Merck) and miconazole (Duchefa Biochemie) from […] to 0.1 μM. The lowest concentration of the antimicrobial agents, which completely eliminated viable bacteria or C. albicans were considered as the minimal bactericidal concentration (MBC) and minimal fungicidal concentration (MFC).
We investigated the antimicrobial activity of 78 NCR peptides from M. truncatula and 12 NCRs from other IRLC legumes as well as their shorter derivatives against E. coli, S. enteritidis, P. aeruginosa, L. monocytogenes, S. aureus, E. faecalis, K. pneumoniae and A. baumannii (Supplementary Table S1). In the selection of the M. truncatula peptides, we considered their symbiotic expression levels but also their physicochemical properties. The antimicrobial activity of NCRs has so far been attributed to cationic peptides, with the exception of one anionic peptide. To investigate whether other anionic NCRs are antimicrobial, in addition to the cationic peptides, neutral and anionic NCRs were also included covering a broad range of peptides with different net charges (NC: from 7.8 to −10.2) and isoelectric points (pI: from 10.69 to 2.95). 50 peptides had positive net charge and pI > 7.0, while 28 peptides had negative net charge and pI < 7.0 (Supplementary Table S1A). Of the other legumes, only cationic NCR peptides were studied (Supplementary Table S1B).
(§2) The minimal bactericidal concentrations (MBCs) were determined after 3 h of treatment of ∼10^7 log phase bacteria with 2-fold serial dilution of peptides from 25 µM to 0.8 µM. Only 25 of the 50 cationic M. truncatula peptides had activity at ≤25 µM (Supplementary Table S1). […] Three peptides were only active against two bacterial strains; NCR649 against L. monocytogenes and A. baumannii, NCR281 against L. monocytogenes and P. aeruginosa and NCR350 against A. baumannii and P. aeruginosa. […] None of the anionic NCR peptides affected the survival of the tested bacterial strains.

For test [2], the system named is Staphylococcus aureus (HNCMO112011). It is filed as cell-based. The conditions noted are these: HNCMO112011, 3 h. The method, boiled down:
(§3)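 Complete loss of viable bacteria after 3 h defined the MBC. Two-fold peptide series, 25 µM top concentration, ~10^7 log-phase cells in potassium-phosphate buffer pH 7.4.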

For test [3], the system named is Pseudomonas aeruginosa (ATCC 27853). It is filed as cell-based. The conditions noted are these: ATCC 27853, 3 h. The method, boiled down: as §3
The test system of test [4] is Enterococcus faecalis (ATCC 29212). It is filed as cell-based. The method, boiled down: as §3
The test system of test [5] is Escherichia coli (ATCC 8739). It is filed as cell-based. The conditions noted are these: ATCC 8739, 3 h. Put shortly: as §3
Test [6] has as its system Salmonella enterica (ATCC 13076). It is filed as cell-based. Conditions: ATCC 13076, 3 h. Put shortly: as §3
Test [7] relates to Acinetobacter baumannii (ATCC 17978). Briefly: microbe, parasite or virus in culture. It is filed as cell-based. Conditions: ATCC 17978, 3 h, pH 7.4; read-out: MBC, minimal bactericidal concentration against A. baumannii.
From the text: as §1, §2

Test [8] has as its system Candida albicans W01 strain. Briefly: microbe, parasite or virus in culture. It is filed as cell-based. Conditions: read-out: MFC, minimal fungicidal concentration against C. albicans.
From the text: as §1

Test [9] relates to Lambda DNA/HindIII marker. Kind of test: Gel retardation assay (DNA aggregation). It is filed as binding. Conditions: 100 ng DNA, 5 or 10 µM peptide in water, 30 min at room temperature, 1% agarose gel. The procedure:
Interactions of peptides with DNA was visualized with gel retardation assay ([Hsu et al., 2005]). 100 ng Lambda DNA/HindIII marker (ThermoFisher Scientific) was incubated with 0, 5 or 10 µM synthetic NCRs or NCR derivatives in water for 30 min at room temperature and then loaded into 1% agarose gel. Electrophoresis of DNA fragments separated the mobile HindIII-digested DNA fragments while the aggregated DNA remained in the loading wells.
FIGURE 6 Aggregation of DNA by NCR peptides. Lambda HindIII digested DNA was incubated without (0) or with NCR peptides at 5 or 10 μM concentration.

Another test concerns A. baumannii. Kind of test: Scanning electron microscopy of cell morphology. The conditions noted are these: 30 min treatment, peptide 1.6 or 3.125 µM as in Figure 3 legend. It is filed as cell-based, Acinetobacter baumannii. The procedure:
A. baumannii and C. albicans were grown and treated the same way as for the membrane permeability assay. Cells were then fixed with 2.5% (v/v) glutaraldehyde in phosphate buffered saline (PBS, pH 7.4). 5 μl of the above bacterial and yeast suspensions were spotted on a silicon disk coated with 0.01% Poly-L-Lysine. The filters were washed twice with PBS and gradually dehydrated with ethanol series (30, 50, 70, 80%, and three times 100% ethanol, each for minimum 30 min). The samples were dried with a critical point dryer (K850: Quorum Technologies Ltd.), followed by 12 nm gold coating and observed under a JEOL JSM-7100F/LV scanning electron microscope.
FIGURE 3 Viability, membrane permeability and morphology of A. baumannii cells after NCR treatment (A–L) SYTO9/PI staining observed with confocal microscope, (M–X) Cell morphology observed with SEM. (A,M) untreated control, (B,N) CaNCR13, 3.125 µM, (C,O) CaNCR63, 3.125 µM, (D,P) CaNCR63_1-20, 3.125 µM, (E,Q) CaNCR63_15-34, 3.125 µM, (F,R) MsNCR443, 3.125 µM, (G,S) MsNCR463_16-35, 1.6 µM, (H,T) MsNCR463_17-30, 3.125 µM, (I,U) PsNCR349, 1.6 µM, (J,V) PsNCR349_26-50, 3.125 µM, (K,W) PsNCR349_31-50, 3.125 µM, (L,X) PsNCR352, 1.6 µM.

≈ marks a conversion by molar mass, not a printed value. Entries after “also recorded” stand apart in the source; their conditions may differ. Where two headings read alike, the source gives them in different places. Ends that are not written are not given here. Peptide text beside a SMILES is read from it.

In the case of “FIDCETVADCPTHWAYIYVCEKNKCRYHFKSGRVRPDHQKNRHNRV-OH (cysteines drawn unpaired) [NCR520]”, the “Antibacterial spectrum over the eight tested bacterial strains” value in test [1] is recorded as “effective against five or four strains”. The “MBC Staphylococcus aureus” value in [2] is given as 25 µM. For the same molecule, in [3], the “MBC Pseudomonas aeruginosa” value is 3.125 µM. For the same molecule, the “Ability to kill E. faecalis” value in [4] (3 h, ~10^7 log phase bacteria, peptides ≤25 µM) was “able to kill”. In [4] (ATCC 29212, 3 h), the “MBC Enterococcus faecalis” value is listed as 25 µM. For the same molecule, the “MBC Escherichia coli” value in [5] amounted to 25 µM.
Take `CC[C@H](C)[C@H](NC(=O)[C@H](CS)NC(=O)[C@H](CO)NC(=O)[C@H](CCCNC(=N)N)NC(=O)[C@H](CO)NC(=O)[C@H](Cc1ccccc1)NC(=O)[C@@H]1CCCN1C(=O)[C@H](CC(C)C)NC(=O)[C@H](Cc1ccc(O)cc1)NC(=O)[C@H](C)N)C(=O)N[C@@H](CO)C(=O)N[C@@H](CC(=O)O)C(=O)N[C@@H](CCCCN)C(=O)N[C@@H](CC(=O)O)C(=O)N[C@@H](CS)C(=O)N1CCC[C@H]1C(=O)N[C@@H](CCC(N)=O)C(=O)N[C@H](C(=O)N[C@@H](CCCCN)C(=O)N[C@@H](CC(N)=O)C(=O)N[C@@H](Cc1ccccc1)C(=O)N[C@@H](CO)C(=O)N[C@@H](C)C(=O)N[C@@H](CCCNC(=N)N)C(=O)N[C@@H](CS)C(=O)N[C@@H](CCCNC(=N)N)C(=O)N[C@@H](CCCCN)C(=O)NCC(=O)N[C@@H](Cc1ccc(O)cc1)C(=O)N[C@@H](CS)C(=O)N[C@@H](CCC(N)=O)C(=O)N[C@@H](Cc1ccccc1)C(=O)N[C@@H](CCCNC(=N)N)C(=O)N[C@H](C(=O)N[C@H](C(=O)N[C@@H](CCCNC(=N)N)C(=O)O)C(C)C)C(C)C)C(C)C` [NCR471] (H-AYLPFSRSCISDKDCPQVKNFSARCRKGYCQFRVVR-OH; N-terminus assumed): in [1], the “Antibacterial spectrum over the eight tested bacterial strains” value is recorded as “effective against five or four strains”. For the same molecule, the “MBC Staphylococcus aureus” value in [2] was determined as 12.5 µM (≈ 52.9 µg/mL). In addition, the “MBC Pseudomonas aeruginosa” value in test [3] turned out to be 3.125 µM (≈ 13.2 µg/mL). The “MBC Escherichia coli” value in test [5] was 25 µM (≈ 106 µg/mL). Moreover, the “MBC Salmonella enterica” value in test [6] amounted to 25 µM (≈ 106 µg/mL).
For the molecule `CC(C)[C@H](NC(=O)CNC(=O)[C@H](CCCNC(=N)N)NC(=O)[C@H](CCCCN)NC(=O)[C@@H]1CCCN1C(=O)[C@@H](N)CCCCN)C(=O)N[C@@H](CC(N)=O)C(=O)N[C@@H](Cc1ccccc1)C(=O)N[C@@H](CCCNC(=N)N)C(=O)N[C@@H](CS)C(=O)N[C@@H](CCCNC(=N)N)C(=O)N[C@@H](CCCCN)C(=O)NCC(=O)N[C@@H](CCCCN)C(N)=O` [MsNCR463_17-30] (H-KPKRGVNFRCRKGK-NH2), the MBC in [7] stood at 3.125 µM (≈ 5.23 µg/mL). Besides, the MFC in [8] (W01 strain) came to 3.125 µM (≈ 5.23 µg/mL).
With `CC[C@H](C)[C@H](NC(=O)[C@H](CCCCN)NC(=O)[C@H](CO)NC(=O)[C@H](CCCNC(=N)N)NC(=O)[C@@H]1CCCN1C(=O)[C@@H](N)CS)C(=O)N[C@@H](CCCCN)C(=O)N[C@@H](CC(=O)O)C(=O)N[C@@H](CS)C(=O)N[C@H](C(=O)N[C@@H](CCCCN)C(=O)NCC(=O)N[C@@H](Cc1ccc(O)cc1)C(=O)N[C@@H](CS)C(=O)N[C@@H](CCCNC(=N)N)C(=O)N[C@@H](CS)C(=O)N[C@H](C(=O)N[C@@H](CCCNC(=N)N)C(=O)N[C@@H](CCCCN)C(=O)N[C@@H](CCCCN)C(N)=O)C(C)C)C(C)C` [CaNCR63_15-34] (H-CPRSKIKDCVKGYCRCVRKK-NH2; N-terminus assumed), the “Aggregation of HindIII-digested λ DNA (DNA retained in loading wells)” value in test [9] is recorded as “DNA remained in the wells”. Further, the “Morphology of A. baumannii cells by SEM” value in the test on A. baumannii is “rough cell surface, lysis and flattening of the cells; also recorded: Filament-like structures”.
Take `CSCC[C@H](NC(=O)[C@H](CC(N)=O)NC(=O)[C@H](Cc1ccccc1)NC(=O)[C@@H](NC(=O)[C@H](CC(C)C)NC(=O)[C@H](CCCCN)NC(=O)[C@H](CCCCN)NC(=O)[C@H](CCCCN)NC(=O)[C@H](CCCCN)NC(=O)[C@H](CCCCN)NC(=O)[C@H](CC(C)C)NC(=O)[C@H](CCCCN)NC(=O)[C@H](CCCCN)NC(=O)[C@H](CCCCN)NC(=O)[C@H](Cc1c[nH]cn1)NC(=O)[C@H](CCCCN)NC(=O)[C@H](CCC(N)=O)NC(=O)[C@@H](NC(=O)[C@H](CS)NC(=O)[C@@H](N)Cc1ccc(O)cc1)C(C)C)[C@@H](C)O)C(N)=O` [PsNCR349_31-50] (H-YCVQKHKKKLKKKKKLTFNM-NH2): the MBC in test [7] is 6.25 µM (≈ 15.8 µg/mL). In test [8] (W01 strain), the MFC came out at 1.6 µM (≈ 4.03 µg/mL).
As for `CSCC[C@H](NC(=O)[C@H](CC(N)=O)NC(=O)[C@H](Cc1ccccc1)NC(=O)[C@@H](NC(=O)[C@H](CC(C)C)NC(=O)[C@H](CCCCN)NC(=O)[C@H](CCCCN)NC(=O)[C@H](CCCCN)NC(=O)[C@H](CCCCN)NC(=O)[C@H](CCCCN)NC(=O)[C@H](CC(C)C)NC(=O)[C@H](CCCCN)NC(=O)[C@H](CCCCN)NC(=O)[C@H](CCCCN)NC(=O)[C@H](Cc1c[nH]cn1)NC(=O)[C@H](CCCCN)NC(=O)[C@H](CCC(N)=O)NC(=O)[C@@H](NC(=O)[C@H](CS)NC(=O)[C@H](Cc1ccc(O)cc1)NC(=O)[C@H](CS)NC(=O)[C@@H](NC(=O)[C@H](CCCCN)NC(=O)[C@H](Cc1c[nH]c2ccccc12)NC(=O)[C@@H](N)C(C)C)[C@@H](C)O)C(C)C)[C@@H](C)O)C(N)=O` [PsNCR349_26-50] (H-VWKTCYCVQKHKKKLKKKKKLTFNM-NH2; N-terminus assumed), in [7], the MBC amounted to 3.125 µM (≈ 9.81 µg/mL). The “Aggregation of HindIII-digested λ DNA (DNA retained in loading wells)” value in test [9] is “DNA remained in the wells”. The “Morphology of A. baumannii cells by SEM” value in the test with A. baumannii is “Filament-like structures”. The MFC in test [8] (C. albicans W01, two-fold dilution series, lowest concentration completely eliminating viable C. albicans) was 3.125 µM (≈ 9.81 µg/mL).
